{
  "source": "patent US7781419B2",
  "about": "“Use of bisphosphonates for otosclerosis” (priority 2003, dated 2010)",
  "key": {"[1]": {"system": "otosclerosis patients with hearing loss", "conditions": "4 mg per injection, after 2 to 10 months, 5 patients (two also on etidronate)", "procedure": "To illustrate the advantages of the invention, patients with the following symptoms were treated.\nIn a fourth study, the following populations having the symptom stated were administered a zolendronic acid injection in 4 mg per injection no more frequently than every three months. The frequency of administration was dependent upon the patient response and the impending indication. Some patients were also administered etidronate. All patients received calcium plus vitamin D and/or calcium plus fluoride throughout the treatment.\nHearing Loss after 2 to 10 Months"}, "[2]": {"system": "otosclerosis patients with dizziness", "experiment": "Example 4: intravenous zolendronic acid, dizziness patients", "format": "in vivo, human", "conditions": "4 mg per injection, after 4 to 12 months, 3 patients", "description": "(§1) Patients were administered the bisphosphonate to see if dizziness could disappear or if associated symptoms of hearing loss or ear noise could be improved.\nIn a fourth study, the following populations having the symptom stated were administered a zolendronic acid injection in 4 mg per injection no more frequently than every three months. […] Some patients were also administered etidronate.\nDizziness after 4 to 12 Months"}, "[3]": {"system": "otosclerosis patients with hearing loss", "experiment": "Example 1: stepped-up risedronate, hearing loss patients", "format": "in vivo, human", "conditions": "30 mg twice weekly, after 3 to 24 months, 46 patients", "description": "(§2) In the first study, the following populations having the symptom stated were treated with a dosing schedule of 30 mg risedronate twice weekly (double the recommended dose for treating osteoporosis).\nHearing Loss after a Period of 3 to 24 Months"}, "[4]": {"system": "otosclerosis patients with hearing loss", "experiment": "Example 2: stepped-up risedronate follow-up, hearing loss patients", "format": "in vivo, human", "conditions": "30 mg twice weekly, after 3 to 31 months, 125 patients", "excerpt": "(§3) The second investigation is cumulative to the first investigation, i.e., some patients reported in Example 1 are included in Example 2.\nHearing Loss after a Period of 3 to 31 Months"}, "[5]": {"system": "otosclerosis patients with tinnitus", "experiment": "Example 1: stepped-up risedronate, tinnitus patients", "format": "in vivo, human", "conditions": "30 mg twice weekly, after 3 to 19 months, 29 patients", "description": "This symptom can be a mild distraction, to an annoyance, to difficulty concentrating, to a total distraction. […] There are no current recognized treatments for tinnitus directed at a cause.\nas §2\nTinnitus or Ear Noise after a Period of 3 to 19 Months"}, "[6]": {"system": "otosclerosis patients with Meniere's syndrome", "experiment": "Example 1: stepped-up risedronate, Meniere's syndrome patients", "format": "in vivo, human", "conditions": "30 mg twice weekly, after 2 to 25 months, 36 patients", "description": "as §2"}, "[7]": {"system": "otosclerosis patients with dizziness", "experiment": "Example 1: stepped-up risedronate, dizziness patients", "format": "in vivo, human", "conditions": "30 mg twice weekly, after 3 to 25 months, 76 patients", "description": "as §1, §2"}, "[8]": {"system": "otosclerosis patients with Meniere's syndrome", "experiment": "Example 2: stepped-up risedronate follow-up, Meniere's syndrome patients", "format": "in vivo, human", "conditions": "30 mg twice weekly, after 2 to 33 months, 42 patients", "excerpt": "as §3\nMeniere's Syndrome after a Period of 2 to 33 Months"}, "[9]": {"system": "otosclerosis patients with dizziness", "experiment": "Example 2: stepped-up risedronate follow-up, dizziness patients", "format": "in vivo, human", "conditions": "30 mg twice weekly, after 2 to 32 months, 155 patients", "excerpt": "as §3\nDizziness after a Period of 2 to 32 Months"}, "[10]": {"system": "otosclerosis patients with tinnitus", "experiment": "Example 2: stepped-up risedronate follow-up, tinnitus patients", "format": "in vivo, human", "conditions": "30 mg twice weekly, after 2 to 31 months, 84 patients", "excerpt": "as §3\nTinnitus or Ear Noise after 2 to 31 Months"}},
  "note": "Where two headings read alike, the source gives them in different places.",
  "data": [
    {"smiles": "O=P(O)(O)C(O)(Cn1ccnc1)P(=O)(O)O", "note": "[zolendronic acid]", "values": [
      {"measurement": "patients with hearing unchanged", "setting": "[1]", "result": 80, "unit": "%"},
      {"measurement": "patients with hearing worse", "setting": "[1]", "result": 20, "unit": "%"},
      {"measurement": "relief of dizziness", "setting": "[2]", "result": "~100", "unit": "%"}
    ]},
    {"smiles": "O=P(O)(O)C(O)(Cc1cccnc1)P(=O)(O)O", "note": "[risedronate, pyridiniyl bisphosphonate]", "values": [
      {"measurement": "patients with hearing improved", "setting": "[3]", "result": 70, "unit": "%"},
      {"measurement": "patients with hearing unchanged", "setting": "[3]", "result": 24, "unit": "%"},
      {"measurement": "patients with hearing worse", "setting": "[3]", "result": 6, "unit": "%"},
      {"measurement": "patients with hearing improved", "setting": "[4]", "result": 51, "unit": "%"},
      {"measurement": "patients with hearing unchanged", "setting": "[4]", "result": 47, "unit": "%"},
      {"measurement": "patients with hearing worse", "setting": "[4]", "result": 2, "unit": "%"},
      {"measurement": "improvement in tinnitus or ear noise", "setting": "[5]", "result": 68, "unit": "%"},
      {"measurement": "patients with disappearance of tinnitus", "setting": "[5]", "result": 7, "unit": "%"},
      {"measurement": "patients with reduction of tinnitus to a point where it was no longer a problem", "setting": "[5]", "result": 62, "unit": "%"},
      {"measurement": "patients with tinnitus the same", "setting": "[5]", "result": 24, "unit": "%"},
      {"measurement": "patients with tinnitus worse", "setting": "[5]", "result": 7, "unit": "%"},
      {"measurement": "clogging or fullness in the ear worse", "setting": "[6]", "result": "no patient"},
      {"measurement": "dizziness the same or worse", "setting": "[6]", "result": "no instances"},
      {"measurement": "ear noise worse", "setting": "[6]", "result": "no patient"},
      {"measurement": "patients in whom clogging or fullness in the ear was not present", "setting": "[6]", "result": 42, "unit": "%"},
      {"measurement": "patients whose clogging or fullness in the ear disappeared", "setting": "[6]", "result": 17, "unit": "%"},
      {"measurement": "patients whose dizziness disappeared", "setting": "[6]", "result": 50, "unit": "%"},
      {"measurement": "patients whose ear noise cleared up", "setting": "[6]", "result": 8, "unit": "%"},
      {"measurement": "patients with clogging or fullness in the ear better", "setting": "[6]", "result": 22, "unit": "%"},
      {"measurement": "patients with clogging or fullness in the ear the same", "setting": "[6]", "result": 19, "unit": "%"},
      {"measurement": "patients with ear noise better", "setting": "[6]", "result": 72, "unit": "%"},
      {"measurement": "patients with ear noise unchanged", "setting": "[6]", "result": 19, "unit": "%"},
      {"measurement": "patients with hearing better", "setting": "[6]", "result": 83, "unit": "%"},
      {"measurement": "patients with hearing the same", "setting": "[6]", "result": 8, "unit": "%"},
      {"measurement": "patients with hearing worse than with prior bisphosphonate treatment", "setting": "[6]", "result": 8, "unit": "%"},
      {"measurement": "patients with improvement, regular lifestyle free of disabling dizziness", "setting": "[6]", "result": 16, "unit": "%"},
      {"measurement": "patients with disappearance of dizziness", "setting": "[7]", "result": 38, "unit": "%"},
      {"measurement": "patients with dizziness worse", "setting": "[7]", "result": 3, "unit": "%"},
      {"measurement": "patients with no change in dizziness", "setting": "[7]", "result": 8, "unit": "%"},
      {"measurement": "patients with reduced dizziness, no problem in daily living", "setting": "[7]", "result": 38, "unit": "%"},
      {"measurement": "relief of dizziness", "setting": "[7]", "result": "greater than 90%"},
      {"measurement": "clogging or fullness in the ear worse", "setting": "[8]", "result": "no patients"},
      {"measurement": "dizziness the same or worse", "setting": "[8]", "result": "no instances"},
      {"measurement": "patients whose clogging or fullness in the ear disappeared", "setting": "[8]", "result": 26, "unit": "%"},
      {"measurement": "patients whose dizziness disappeared", "setting": "[8]", "result": 57, "unit": "%"},
      {"measurement": "patients with clogging or fullness in the ear better", "setting": "[8]", "result": 19, "unit": "%"},
      {"measurement": "patients with clogging or fullness in the ear the same", "setting": "[8]", "result": 7, "unit": "%"},
      {"measurement": "patients with ear noise better", "setting": "[8]", "result": 60, "unit": "%"},
      {"measurement": "patients with ear noise gone", "setting": "[8]", "result": 10, "unit": "%"},
      {"measurement": "patients with ear noise the same", "setting": "[8]", "result": 19, "unit": "%"},
      {"measurement": "patients with ear noise worse", "setting": "[8]", "result": 2, "unit": "%"},
      {"measurement": "patients with hearing better", "setting": "[8]", "result": 69, "unit": "%"},
      {"measurement": "patients with hearing the same", "setting": "[8]", "result": 14, "unit": "%"},
      {"measurement": "patients with hearing worse than with prior bisphosphonate treatment", "setting": "[8]", "result": 12, "unit": "%"},
      {"measurement": "patients with improvement, regular lifestyle free of disabling dizziness", "setting": "[8]", "result": 17, "unit": "%"},
      {"measurement": "patients whose dizziness disappeared", "setting": "[9]", "result": 45, "unit": "%"},
      {"measurement": "patients with dizziness worse", "setting": "[9]", "result": 2, "unit": "%"},
      {"measurement": "patients with no change in dizziness", "setting": "[9]", "result": 5, "unit": "%"},
      {"measurement": "patients with reduced dizziness, no problem in daily living", "setting": "[9]", "result": 39, "unit": "%"},
      {"measurement": "relief of dizziness", "setting": "[9]", "result": 84, "unit": "%"},
      {"measurement": "improvement in tinnitus or ear noise", "setting": "[10]", "result": 76, "unit": "%"},
      {"measurement": "patients with disappearance of tinnitus", "setting": "[10]", "result": 5, "unit": "%"},
      {"measurement": "patients with reduction of tinnitus to a point where it was no longer a problem", "setting": "[10]", "result": 71, "unit": "%"},
      {"measurement": "patients with tinnitus the same", "setting": "[10]", "result": 21, "unit": "%"},
      {"measurement": "patients with tinnitus worse", "setting": "[10]", "result": 2, "unit": "%"}
    ]}
  ]
}
